Test results published in US20250114326A1, “POLAR MARINE-DERIVED MACROCYCLIC LACTAM COMPOUND, AND PREPARATION METHOD THEREFOR AND USE THEREOF” (RENJI HOSPITAL, SCHOOL OF MEDICINE, SHANGHAI JIAO TONG …, priority 2021, published 2025).
Like-named read-outs stand apart in the source and are kept apart here.

System: inflammatory cytokine IL-6
Test: Inhibition of cytokine IL-6 in PMA-differentiated, LPS-treated THP-1 cells (Cytometric Bead Array, flow cytometry)
Assay type: cell-based, human
Settings: PMA 160 nM 36 h, compound 2 h then LPS 24 h, IL-6 in culture solution by CBA, read-out: Half maximal inhibitory concentration (IC50) value on inflammatory cytokine IL-6
Experimental: Culture of THP-1 cells and treatment of THP-1 cells with test compounds in combination with LPS
THP-1 cells (from the Cell Bank of the Chinese Academy of Sciences) were cultured in RPMI-1640 medium containing 10% FBS in a 5% CO2 incubator at 37° C. 100 μL of a cell suspension in a complete culture medium containing antibiotics (100 μg/mL streptomycin and 100 U/mL penicillin) and PMA (final concentration: 160 nM) was added to each well in a 96-well plate (about 5×10^4 cells/well). After 36 h of treatment, the cells achieved adherent growth.
The PMA-containing medium was discarded and then the cells were washed with 1×PBS solution. Serum-free RPMI-1640 (2 mL) was added and the cells were treated for 12 h. The active compounds to be tested were diluted into five concentration gradients and added to each well for a 2-hour treatment. The culture solutions containing the compounds were retained and the cells were treated with a serum-free medium ([…]) containing LPS (1 mg/mL) for 24 h.
The content assay for cytokine IL-6 in the culture solution was performed according to the Human Inflammation Cytometric Bead Array (CBA) method in the manufacturer's instructions. After the above-mentioned cytokine levels were determined on the FACSCalibur flow cytometer, the FCAP Array software was used to analyze the results.

| Compound | IC50 (Homo sapiens) [µM] | IC50 (listed as control drug) [µM] | IC50 [µM] |
| --- | --- | --- | --- |
| CC[C@H](C)C[C@@]1(O)C(=O)NC[C@H](O)[C@@H](OC)C(=O)O[C@@H]2CO[C@]3(C)C=C(C)[C@@H](/C(C)=C/[C@@]4(C)O[C@]1(O)C[C@H]4O)[C@@H]3C2 [Compound 4, Somalactam D] | 9.12 ± 0.15 | – | – |
| Tocilizumab [reference compound] | – | 6.02 ± 0.12 | 9.22 ± 0.12 |
| CC[C@H](C)C[C@]1(O)C(=O)C[C@@H](O)[C@@]2(C)C=C(C)[C@H](O2)/C(C)=C/C(C)=C/C[C@@H](CO)OC(=O)[C@H](OC)[C@@H](O)CNC1=O [Compound 1, Somalactam A] | 10.54 ± 0.06 | – | – |
| CC[C@H](C)C[C@@]1(O)C(=O)NC[C@H](O)[C@@H](OC)C(=O)O[C@H](CO)C/C=C(\C)[C@@H]2C(C)=C[C@@]3(C)O[C@@H]4C[C@@]1(O)O[C@]4(C)[C@@H]23 [Compound 3, Somalactam C] | 5.76 ± 1.18 | – | – |
| CC[C@H](C)C[C@@]1(O)C(=O)NC[C@H](O)[C@@H](OC)C(=O)OC[C@@H](O)C/C=C(\C)[C@H]2C(C)=C[C@]3(C)O[C@@H]4C[C@@]1(O)O[C@]4(C)[C@H]23 [Compound 2, Somalactam B] | 11.1 ± 0.13 | – | – |
